Like-named read-outs stand apart in the source and are kept apart here.
Assays:
Format in all cases: biochemical
[1] = biological target: T1, Aspartat-Kinase (AK) aus C. glutamicum ATCC13032 (Wildtyp-Enzym) (Corynebacterium glutamicum, UniProt P26512); experiment: Aspartate kinase test (hydroxamate), inhibition by effector combinations, dialysed crude extract
T1 construct: Rohextrakten identisch gezogener; endogenous in cells; host or cells: C. glutamicum ATCC13032, dialysed crude extract
T1 sequence (P26512 1-421): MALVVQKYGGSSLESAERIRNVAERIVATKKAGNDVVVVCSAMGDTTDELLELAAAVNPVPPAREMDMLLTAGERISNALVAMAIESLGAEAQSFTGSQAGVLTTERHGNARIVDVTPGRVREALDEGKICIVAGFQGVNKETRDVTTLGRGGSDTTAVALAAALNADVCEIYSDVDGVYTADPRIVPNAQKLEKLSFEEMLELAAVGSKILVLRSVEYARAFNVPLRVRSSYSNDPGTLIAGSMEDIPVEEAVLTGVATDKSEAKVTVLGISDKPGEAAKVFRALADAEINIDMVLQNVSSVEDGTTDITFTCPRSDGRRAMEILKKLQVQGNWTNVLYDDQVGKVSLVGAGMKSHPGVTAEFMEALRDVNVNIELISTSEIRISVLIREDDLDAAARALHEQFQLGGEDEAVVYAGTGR
T1 sequence (P26512 1-172 isoform P26512-2): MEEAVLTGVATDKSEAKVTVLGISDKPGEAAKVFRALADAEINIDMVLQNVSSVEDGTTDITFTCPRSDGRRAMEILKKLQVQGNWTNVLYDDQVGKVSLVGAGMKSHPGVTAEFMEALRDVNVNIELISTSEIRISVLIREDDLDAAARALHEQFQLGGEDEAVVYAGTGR
Method: (§1) Die Stämme ATCC13032 und DM58-1 wurden unter direkt vergleichbaren Bedingungen in Standard I Bouillon (Merck Art. Nr. 7882) mit zusätzlichen 4 g/l Glucose und 1 mM MgCl₂ bei 30 °C und 150 rpm bis zum Erreichen der früh stationären Phase kultiviert und durch Zentrifugation vom Kulturmedium getrennt. Man wäscht 3 Mal mit 100 mM Tris/HCl (pH 7,5); 1 mM DTT und suspendiert die Feuchtzellmasse in einem Volumenteil des gleiche Puffers.
(§2) Die so suspendierten Zellen wurden in einer Kugelmühle (B. Braun Melsungen - MSK-Homogenisator, IMA-Disintegrator S) durch Verrühren mit einer geeigneten Menge an Glasperlen aufgeschlossen. Das Zellhomogenat wurde mittels Glasfilternutsche von den Glasperlen getrennt und 30 Minuten bei 30000 x g klarzentrifugiert.
(§3) Nach 15stündiger Dialyse in Enzym-stabilisierendem Puffer wurden die Enzymaktivitäten in folgenden Testgemischen bestimmt:
(§4) Aspartat-Kinase Test: 100 mM Tris/HCl (pH 7,5), 1 mM DTT, 400 mM (NH₄)₂SO₄, 20 mM MgCl₂, 400 mM NH₂OH·HCl, 300 mM L-Aspartat, 40 mM ATP und verschiedene Mengen Enzympräparation. Durch Zugabe von 750 µl einer Lösung aus 10 % Fe Cl₃ 6H₂O; 3,3 % TCA; 0,7 N HCl zu 500 µl des Enzymtestgemisches wird die Enzymreaktion nach 30 minütiger Inkubation bei 37 °C gestoppt. Aus der mittels Eichkurvenverfahren photometrisch (ΔE540 nm) bestimmten Aspartyl-beta-Hydroxamat Konzentration wird die in µMol/mg·min (U/mg) angegebenen Enzymaktivität kalkuliert. Die zugehörigen Proteinkonzentrationen wurden nach der Methode von Lowry et al. (Lowry et al. J. Biol. Chem. 193, 265 (1951)) oder Bradford (Bradford Anal. Biochem. 72, 248 (1976)) durchgeführt. Der Aspartyl-β-semialdehyd Dehydrogenase Test enthält 120 mM Diethanolamin (pH 9,0); 40 mM Na AsO₄; 1 mM NADP⁺; 5 mM L-Threonin; 1,3 mM Aspartyl-beta-semialdehyd und verschiedene Mengen Enzympräparation in einem Gesamtvolumen von 1 ml. Die in µMol/mg·min (U/mg) angegebene Aktivitat wird über die photometrisch […] bestimmte NADPH Synthesegeschwindigkeit berechnet.
(§5) Tabelle 1 zeigt, das die bereits von K. Nakayama et al. (K. Nakayama et al. Agr. Biol. Chem. 30, 611 (1966)) angedeutete und von S.N. Kara-Murza et al. (S.N. Kara-Murza Prikladnaya Biokhimiya; Mikrobiologia 14, 345 (1978)) genauer untersuchte Hemmbarkeit des C. glutamicum Wildtyp-Enzyms durch uns reproduziert werden konnte. Dem gegen-übergestellt ist der deutlich differente Charakter des Enzyms der AEC resistenten Mutante DM58-1, deren Aspartat-Kinase nicht mehr konzertiert durch L-Lysin + L-Threonin hemmbar ist. Durch die am Enzym aus ATCC13032 Lysin-analog wirkenden Substanzen S-Aminoethyl-D,L-Cystein (AEC) wird das Enzym der Mutanten ebenfalls nur noch gering beeinflußt. Tabelle 1

[2] = biological target: Aspartat-Kinase (AK) aus C. glutamicum DM58-1 (AEC resistente Mutante von ATCC13032) (Corynebacterium glutamicum, UniProt P26512); experiment: as above
Method: as §1, §2, §3, §4, §5

[3] = biological target: Aspartat-Kinase (AK), C. glutamicum ATCC13032 (pCS2) (Corynebacterium glutamicum, UniProt P26512); experiment: Aspartate kinase test, residual activity with effector combinations
Method: as §1, §2, §3, §4
(§6) Aspartat-Kinase-Aktivität wurde in Stamm ATCC13032/pCS2, als positive Kontrolle in Stamm DM58-1 und als negative Kontrolle in Stamm ATCC13032 gemessen. Die Stämme wurden in Standard I Bouillon, das mit 4 g/l Glucose, 10 µg/ml Kanamycin und 1 mM MgCl₂ supplementiert war, kultiviert. Kulturbedingungen, Zellernte, Zellaufschluß und Bestimmung der Aspartat-Kinase wurden, wie unter 1.2 beschrieben, durchgeführt. Die Effektoren L-Lys, L-Thr und AEC werden jeweils als Stammlösungen in 100 mM Tris/HCl Puffer mit einem pH von 7,5 zugegeben.
(§7) Die Aspartat-Kinase-Aktivität und die Hemmbarkeit der Enzymaktivität durch Mischungen von Lysin bzw. AEC und Threonin wurde in den konstruierten Klonen bestimmt. Anzucht, Aufschluß und Aktivitätsbestimmung wurden, wie oben beschrieben, durchgeführt. Außerdem wurde die Fahigkeit der verschiedenen Klone untersucht, L-Lysin auszuscheiden. Hierfür wurde ein Agarplatten-Diffusionstest mit einem L-Lysin-auxotrophen Indikationsstamm von C. glutamicum verwendet. Aus Tabelle 4 ist zu entnehmen, daß sämtliche AEC resistenten Stämme eine partiell deregulierte Aspartat-Kinase-Aktivität besitzen und in der Lage sind, L-Lysin auszuscheiden. Tabelle 3

[4] = biological target: Aspartat-Kinase (AK), C. glutamicum ATCC13032 (pCS23) (Corynebacterium glutamicum, UniProt P26512); experiment: as above
Method: as §1, §2, §3, §4, §6, §7

[5] = biological target: Aspartat-Kinase (AK), C. glutamicum ATCC13032 (pCS233) (Corynebacterium glutamicum, UniProt P26512); experiment: as above
Method: as §1, §2, §3, §4, §6, §7

[6] = biological target: Aspartat-Kinase (AK), C. glutamicum ATCC13032 (pCS24) (Corynebacterium glutamicum, UniProt P26512); experiment: as above
Method: as §1, §2, §3, §4, §6, §7

[7] = biological target: Aspartat-Kinase (AK), C. glutamicum ATCC13032 (pCS26) (Corynebacterium glutamicum, UniProt P26512); experiment: as above
Method: as §1, §2, §3, §4, §6, §7

[8] = biological target: Aspartat-Kinase (AK), C. glutamicum DM58-1 (pZ1) (Corynebacterium glutamicum, UniProt P26512); experiment: as above
Method: as §1, §2, §3, §4, §6, §7

[9] = biological target: Aspartat-Kinase (AK), C. glutamicum ATCC13032 (pCS21) (Corynebacterium glutamicum, UniProt P26512); experiment: as above
Method: as §1, §2, §3, §4, §6, §7

[10] = biological target: Aspartat-Kinase (AK), C. glutamicum ATCC13032 pCS22 (Corynebacterium glutamicum, UniProt P26512); experiment: as above
Method: as §1, §2, §3, §4, §6, §7

NCCSCC(N)C(=O)O (racemic) [AEC, S-(Aminoethyl)-D,L-Cystein]
inhibition at 10000 µM ([1]; 10 mM AEC + 1 mM L-Thr, read-out: AK-Hemmung): 12%
inhibition at 10000 µM ([1]; 10 mM AEC + 10 mM L-Thr, read-out: AK-Hemmung): 41%
inhibition at 100000 µM ([1]; 100 mM AEC + 10 mM L-Thr, read-out: AK-Hemmung): 95%
AK-Hemmung ([2]; 10 mM AEC + 1 mM L-Thr): 0%
AK-Hemmung ([2]; 10 mM AEC + 10 mM L-Thr): 0%
AK-Hemmung ([2]; 100 mM AEC + 10 mM L-Thr): 7%
AK Restaktivität (%) in Anwesenheit von 100mM AEC 10mM Thr ([3]; 100mM AEC + 10mM Thr): 56%
AK Restaktivität (%) in Anwesenheit von 100mM AEC 10mM Thr ([4]; 100mM AEC + 10mM Thr): 56%
AK Restaktivität (%) in Anwesenheit von 100mM AEC 10mM Thr ([5]; 100mM AEC + 10mM Thr): 57%
AK Restaktivität (%) in Anwesenheit von 100mM AEC 10mM Thr ([6]; 100mM AEC + 10mM Thr): 62%
AK Restaktivität (%) in Anwesenheit von 100mM AEC 10mM Thr ([7]; 100mM AEC + 10mM Thr): 60%
AK Restaktivität (%) in Anwesenheit von 100mM AEC 10mM Thr ([8]; 100mM AEC + 10mM Thr): 93%

NCCCC[C@H](N)C(=O)O [L-Lys, L-Lysin]
inhibition at 10000 µM ([1]; read-out: AK-Hemmung, 10 mM L-Lys + 1 mM (second inhibitor not named, L-Thr)): 89%
inhibition at 10000 µM ([1]; read-out: AK-Hemmung, 10 mM L-Lys + 10 mM L-Thr): 95%
inhibition at 100000 µM ([1]; read-out: AK-Hemmung, 100 mM L-Lys + 10 mM L-Thr): 99%
AK-Hemmung ([2]; 10 mM L-Lys + 1 mM (second inhibitor not named, L-Thr)): 12%
AK-Hemmung ([2]; 10 mM L-Lys + 10 mM L-Thr): 2%
AK-Hemmung ([2]; 100 mM L-Lys + 10 mM L-Thr): 21%
AK Restaktivität (%) in Anwesenheit von 10mM Lys 1mM Thr ([3]; 10mM Lys + 1mM Thr): 55%
AK Restaktivität (%) in Anwesenheit von 10mM Lys 10mM Thr ([3]; 10mM Lys + 10mM Thr): 55%
AK Restaktivität (%) in Anwesenheit von 100mM Lys 10mM Thr ([3]; 100mM Lys + 10mM Thr): 28%
AK Restaktivität (%) in Anwesenheit von 10mM Lys 1mM Thr ([9]; 10mM Lys + 1mM Thr): 46%
AK Restaktivität (%) in Anwesenheit von 10mM Lys 10mM Thr ([9]; 10mM Lys + 10mM Thr): 50%
AK Restaktivität (%) in Anwesenheit von 100mM Lys 10mM Thr ([9]; 100mM Lys + 10mM Thr): 24%
AK Restaktivität (%) in Anwesenheit von 10mM Lys 1mM Thr ([4]; 10mM Lys + 1mM Thr): 51%
AK Restaktivität (%) in Anwesenheit von 10mM Lys 10mM Thr ([4]; 10mM Lys + 10mM Thr): 57%
AK Restaktivität (%) in Anwesenheit von 100mM Lys 10mM Thr ([4]; 100mM Lys + 10mM Thr): 30%
AK Restaktivität (%) in Anwesenheit von 10mM Lys 1mM Thr ([5]; 10mM Lys + 1mM Thr): 56%
AK Restaktivität (%) in Anwesenheit von 10mM Lys 10mM Thr ([5]; 10mM Lys + 10mM Thr): 62%
AK Restaktivität (%) in Anwesenheit von 100mM Lys 10mM Thr ([5]; 100mM Lys + 10mM Thr): 36%
AK Restaktivität (%) in Anwesenheit von 10mM Lys 1mM Thr ([6]; 10mM Lys + 1mM Thr): 65%
AK Restaktivität (%) in Anwesenheit von 10mM Lys 10mM Thr ([6]; 10mM Lys + 10mM Thr): 65%
AK Restaktivität (%) in Anwesenheit von 100mM Lys 10mM Thr ([6]; 100mM Lys + 10mM Thr): 40%
AK Restaktivität (%) in Anwesenheit von 10mM Lys 1mM Thr ([7]; 10mM Lys + 1mM Thr): 64%
AK Restaktivität (%) in Anwesenheit von 10mM Lys 10mM Thr ([7]; 10mM Lys + 10mM Thr): 63%
AK Restaktivität (%) in Anwesenheit von 100mM Lys 10mM Thr ([7]; 100mM Lys + 10mM Thr): 39%
AK Restaktivität (%) in Anwesenheit von 10mM Lys 1mM Thr ([10]; 10mM Lys + 1mM Thr): 40%
AK Restaktivität (%) in Anwesenheit von 10mM Lys 10mM Thr ([10]; 10mM Lys + 10mM Thr): 41%
AK Restaktivität (%) in Anwesenheit von 100mM Lys 10mM Thr ([10]; 100mM Lys + 10mM Thr): 22%
AK Restaktivität (%) in Anwesenheit von 10mM Lys 1mM Thr ([8]; 10mM Lys + 1mM Thr): 83%
AK Restaktivität (%) in Anwesenheit von 10mM Lys 10mM Thr ([8]; 10mM Lys + 10mM Thr): 100%
AK Restaktivität (%) in Anwesenheit von 100mM Lys 10mM Thr ([8]; 100mM Lys + 10mM Thr): 79%
